PMC5071164 (Biochimica et biophysica acta, 2016)
Where two headings read alike, the source gives them in different places.

Key:
[1] = molecular target: T1, Farnesoid X receptor (FXR) ligand binding domain (Homo sapiens, UniProt Q96RI1); assay: Intrinsic tryptophan fluorescence quenching titration
T1 sequence (Q96RI1 203-486): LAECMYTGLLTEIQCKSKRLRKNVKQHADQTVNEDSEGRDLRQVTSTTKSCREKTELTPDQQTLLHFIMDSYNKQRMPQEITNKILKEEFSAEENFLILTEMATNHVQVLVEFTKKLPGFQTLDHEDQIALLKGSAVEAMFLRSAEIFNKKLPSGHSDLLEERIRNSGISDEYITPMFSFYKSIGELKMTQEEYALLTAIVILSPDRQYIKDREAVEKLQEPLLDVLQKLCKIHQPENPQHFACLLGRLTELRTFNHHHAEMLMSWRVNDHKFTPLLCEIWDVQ

[2] = molecular target: T1, Farnesoid X receptor (FXR) ligand binding domain; assay: as above; remark: listed apart in the source

Row | Compound | Kd [1] [nM] | Kd [2] [nM]
1 | CC(C)=CCc1c(O)cc(O)c2c1O[C@H](c1ccc(O)cc1)CC2=O [8-PN, 8-prenylnaringenin] | 2200 ± 50 | –
2 | COc1cc(O)c(CC=C(C)C)c2c1C(=O)CC(c1ccc(O)cc1)O2 (stereo not drawn) [IX, isoxanthohumol] | 5920 ± 250 | –
3 | COc1cc(O)c(CC=C(C)C)c(O)c1C(=O)/C=C/c1ccc(O)cc1 [XN, xanthohumol] | – | 2680 ± 110
